Test results taken from publication PMC11566078, “Bactericidal activities and biochemical features of 16 antimicrobial peptides against bovine-mastitis causative pathogens” (Veterinary Research, 2024).
Converted amounts (≈) assume the structure as drawn. Where two headings read alike, the source gives them in different places. Where no end group is shown, it is not given here.

Tests used:
[1] = test system: Staphylococcus haemolyticus; test: MIC against field isolate from milk with high SCC; assay type: cell-based; conditions: Staphylococcus haemolyticus, read-out: Minimal inhibitory concentration, Staphylococcus haemolyticus
Protocol: (§1) All plates were cultivated aerobically.
(§2) Experiments were conducted in triplicate.

[2] = test system: Staphylococcus aureus ATCC 6538; test: microbe, parasite or virus in culture; assay type: cell-based
Protocol: (§3) The standard bacterial strains used for antimicrobial activity assays include Staphylococcus aureus ATCC (American Type Culture Collection, Manassas, VA, USA) 6538, Bacillus cereus ATCC 10876, Enterococcus faecalis ATCC 29212, Streptococcus […] 27956, Streptococcus dysgalactiae ATCC 27957, Streptococcus equi subsp. zooepidemicus ATCC 43079, Escherichia coli ATCC 25922, and Pseudomonas aeruginosa ATCC 27853. Most bacterial strains were cultured in LB medium except for E. faecalis and streptococci, which were cultivated in brain heart infusion (BHI) broth (BD Bioscience). […] Experiments were conducted in triplicate.

[3] = test system: Escherichia coli ATCC 25922; test: microbe, parasite or virus in culture; assay type: cell-based; conditions: Escherichia coli, ATCC25922, 8 h, MH broth, WST colourimetric, 1.5 × 10^5 cells/well, 37 °C 6 h + 2 h reagent, A450, triplicate, read-out: Minimal inhibitory concentration, Escherichia coli
Protocol: as §3

[4] = test system: Enterococcus faecalis ATCC 29212; test: microbe, parasite or virus in culture; assay type: cell-based
Protocol: as §3

[5] = test system: Streptococcus agalactiae ATCC 27956; test: microbe, parasite or virus in culture; assay type: cell-based
Protocol: as §3

[6] = test system: Streptococcus dysgalactiae ATCC 27957; test: microbe, parasite or virus in culture; assay type: cell-based
Protocol: as §3

[7] = test system: Pseudomonas aeruginosa ATCC 27853; test: microbe, parasite or virus in culture; assay type: cell-based
Protocol: as §3

[8] = test system: Bacillus cereus ATCC 10876; test: microbe, parasite or virus in culture; assay type: cell-based
Protocol: as §3

[9] = test system: Streptococcus equi subsp. zooepidemicus ATCC 43079; test: microbe, parasite or virus in culture; assay type: cell-based
Protocol: as §3

[10] = test system: Aeromonas hydrophila; test: microbe, parasite or virus in culture; assay type: cell-based; conditions: Aeromonas hydrophila; Gram-negative field isolate from milk; BHI broth; WST colourimetric, 37 °C 6 h; triplicate; read-out: Minimal inhibitory concentration, Aeromonas hydrophila
Protocol: as §1, §2

[11] = test system: Corynebacterium simulans; test: microbe, parasite or virus in culture; assay type: cell-based
Protocol: as §1, §2

[12] = test system: Staphylococcus chromogenes; test: microbe, parasite or virus in culture; assay type: cell-based; conditions: for MIC: Staphylococcus chromogenes, read-out: Minimal inhibitory concentration, Staphylococcus chromogenes
Protocol: as §1, §2

[13] = test system: Staphylococcus epidermidis; test: microbe, parasite or virus in culture; assay type: cell-based
Protocol: as §1, §2

[14] = test system: Staphylococcus xylosus; test: microbe, parasite or virus in culture; assay type: cell-based; conditions: for MIC: Staphylococcus xylosus, read-out: Minimal inhibitory concentration, Staphylococcus xylosus
Protocol: as §1, §2

[15] = test system: Glutamicibacter halophytocola; test: microbe, parasite or virus in culture; assay type: cell-based
Protocol: as §1, §2

[16] = test system: Streptococcus uberis; test: microbe, parasite or virus in culture; assay type: cell-based
Protocol: as §1, §2

[17] = test system: all bacterial strains in the panel and field isolates from milk; assay type: cell-based; conditions: against all bacterial strains in the panel and field isolates from milk
Protocol: The standard bacterial strains used for antimicrobial activity assays include Staphylococcus aureus ATCC (American Type Culture Collection, Manassas, VA, USA) 6538, Bacillus cereus ATCC 10876, Enterococcus faecalis ATCC 29212, Streptococcus agalactiae ATCC 27956, Streptococcus dysgalactiae ATCC 27957, Streptococcus equi subsp. zooepidemicus ATCC 43079, Escherichia coli ATCC 25922, and Pseudomonas aeruginosa ATCC 27853. Most bacterial strains were cultured in LB medium except for E. faecalis and streptococci, which were cultivated in brain heart infusion (BHI) broth (BD Bioscience).
as §1, §2

[18] = test system: PK15 cells; test: Cytotoxicity, WST-1 cell viability; conditions: 24 h, 37 °C, repeated three times
Protocol: (§4) Human keratinocytes (HaCaT) and pig kidney fibroblast cells (PK15, ATCC CCL-33) were cultured in Dulbecco’s modified Eagle’s medium (DMEM; Hyclone™, Logan, UT, USA) and supplemented with 10% foetal bovine serum (FBS; Hyclone™, Logan, UT, USA), 1% penicillin–streptomycin (Hyclone™) at 37 °C, and 5% CO2 up to 80% confluence. Cell substratum adhesion was disrupted using Accutase (Innovative Cell Technologies, San Diego, CA, USA). A total of 4 × 10^4 cells were incubated for 24 h at 37 °C and 5% CO2 in each well of a 96-well plate containing 64 and 160 µg/mL of each peptide.
(§5) A positive control for complete cell lysis was established using Triton-X100 (1%), and untreated cells were used as the negative control. After incubation, the medium was removed from the wells and replaced with 10 µL of colouring solution (Cell Proliferation Reagent WST-1™) and 100 µL of DMEM (Hyclone™), per the manufacturer’s protocol. Each well absorbance was measured at 440 nm (peptide-treated and control) and 650 nm (background). These measurements were recorded as the optical density (OD) using a microplate reader (xMark™ spectrophotometer; Bio-Rad, CA, USA). Cell viability was calculated using the following equation: CellViability(%)=100×(ODpeptide-ODbackground)/(ODnegative-ODbackground)
(§6) All experiments were performed in triplicate.

[19] = test system: bovine erythrocytes; test: Haemolytic activity; assay type: cell-based; conditions: OD 410 nm, repeated three times
Protocol: The experimental procedures were conducted in accordance with the guidelines approved by the Institutional Animal Care and Use Committee (IACUC) of Konkuk University, Seoul, Korea, and bovine blood was collected from a cow at a local farm using a BD Vacutainer® Sodium Heparin (BD Bioscience) to analyse haemolytic activity. Plasma was removed from the whole blood by centrifugation. Erythrocytes were washed thrice with phosphate-buffered saline (PBS, pH 7.4) and resuspended in PBS at a concentration of 2% (v/v). Subsequently, 100 µL of the erythrocyte suspension was added to each well of a 96-well microtiter plate. The plate contained an equal volume of the peptides in PBS with different concentrations of 10, 20, 40, 80, and 160 μg/mL. Triton-X 100 (1%) and PBS were used as positive and negative controls, respectively. Plates were incubated at 37 °C for 1 h. The release of haemoglobin into the supernatant was monitored by measuring the change in OD at 410 nm using a microplate reader (xMark™ spectrophotometer; Bio-Rad). Results from three independent experiments were pooled. Hemolysis was calculated using the formula: HemolyticPercentage(%)=100×(ODpeptide-ODnegative)/(ODpositive-ODnegative)
All experiments were carried out in triplicate.

[20] = test system: eight standard bacterial strains; assay type: cell-based; conditions: all eight standard strains; range stated for the three peptides
Protocol: as §3

[21] = test system: HaCaT cells; test: Cytotoxicity, WST-1 cell viability; conditions: 24 h, 37 °C, repeated three times
Protocol: as §4, §5, §6

[22] = test system: field isolates from milk with high SCCs; conditions: all field isolates except A. hydrophila; range stated for the three peptides
[23] = test system: E. coli (ATCC 25922); assay type: in vitro ADME, Escherichia coli
Protocol: The MICs against E. coli (ATCC 25922) for cc-CATH3, ML-CATH, and PD-CATH in 150 mM NaCl and different pH (pH 5, 6, and 7) that were adjusted using acetic acid (Sigma Aldrich) were determined as described above. For serum stability assay, each AMP at four different concentrations was dissolved in 50% (v/v) FBS (Hyclone™) and incubated at 37 °C for 0, 60, and 120 min, respectively. As described in a previous study, ΔHg-CATH was used as a control for serum sensitivity. The antimicrobial activity of cc-CATH3, ML-CATH, and PD-CATH against E. coli was assessed for each condition as above. All experiments were conducted in triplicate.
Figure 2 Changes in the antibacterial activity of cc-CATH3, ML-CATH, and PD-CATH after incubation with naïve serum. cc-CATH3, ML-CATH, and PD-CATH peptides were incubated in 50% (v/v) FBS each for 0, 60, and 120 min before applying to antimicrobial activity assay against E. coli (ATCC 25922). The antimicrobial activity was determined by measuring bacterial growth at OD 450 nm. The X and Y axes indicate peptide concentration and absorbance at 450 nm, respectively. Samples containing 50% FBS in the absence of the peptides indicate a control for bacterial growth without AMP treatments. The antimicrobial activity of cc-CATH3 (A), ML-CATH (B), and PD-CATH (C) after the treatment of FBS-incubated AMPs was shown.

[24] = field isolate from milk, WST colourimetric, 37 °C 6 h, triplicate
[25] = value in brackets, Additional file 6, field isolate

`CNC(C)C1CCC(N)C(OC2C(N)CC(N)C(OC3OCC(C)(O)C(NC)C3O)C2O)O1` (centres unmarked) [Gentamicin, reference compound] was tested, and the MIC [1, 24] was 10 µg/mL, the MIC [1, 25] was 20.9 nM and the MIC ([2]; Staphylococcus aureus, ATCC6538, ATCC 6538, MH broth, WST colourimetric, 37 °C 6 h, triplicate, read-out: Minimal inhibitory concentration, Staphylococcus aureus) was 1 µg/mL (≈ 2.09 µM). For the same compound, the MIC [3] was 1 µg/mL, the MIC ([4]; Enterococcus faecalis, ATCC29212, ATCC 29212, BHI broth, WST colourimetric, 37 °C 6 h, triplicate, read-out: Minimal inhibitory concentration, Enterococcus faecalis) was 90 µg/mL (≈ 188 µM) and the MIC ([5]; Streptococcus agalactiae, ATCC27956, ATCC 27956, BHI broth, WST colourimetric, 37 °C 6 h, triplicate, read-out: Minimal inhibitory concentration, Streptococcus agalactiae) was 75 µg/mL (≈ 157 µM). The MIC ([6]; Streptococcus dysgalactiae, ATCC27957, ATCC 27957, BHI broth, WST colourimetric, 37 °C 6 h, triplicate, read-out: Minimal inhibitory concentration, Streptococcus dysgalactiae) was 15 µg/mL (≈ 31.4 µM), the MIC ([7]; Pseudomonas aeruginosa, ATCC27853, ATCC 27853, CAMHB, WST colourimetric, 37 °C 6 h, triplicate, read-out: Minimal inhibitory concentration, Pseudomonas aeruginosa) was 1 µg/mL (≈ 2.09 µM) and the MIC ([8]; Bacillus cereus, ATCC10876, ATCC 10876, MH broth, WST colourimetric, 37 °C 6 h, triplicate, read-out: Minimal inhibitory concentration, Bacillus cereus) was 1 µg/mL (≈ 2.09 µM). It also gave an MIC ([9]; Streptococcus equi, ATCC43079, ATCC 43079, BHI broth, WST colourimetric, 37 °C 6 h, triplicate, read-out: Minimal inhibitory concentration, Streptococcus equi subsp. zooepidemicus) of 45 µg/mL (≈ 94.2 µM), an MIC [10] of 4 µg/mL (≈ 8.38 µM) and an MIC ([11]; Corynebacterium simulans, field isolate from milk, BHI broth, WST colourimetric, 37 °C 6 h, triplicate, read-out: Minimal inhibitory concentration, Corynebacterium simulans) of 10 µg/mL (≈ 20.9 µM). It also gave an MIC [12, 24] of 2 µg/mL, an MIC [12, 25] of 4.2 nM and an MIC ([13]; Staphylococcus epidermidis, field isolate from milk, WST colourimetric, 37 °C 6 h, triplicate, read-out: Minimal inhibitory concentration, Staphylococcus epidermidis) of 4 µg/mL (≈ 8.38 µM). It also gave an MIC [14, 24] of 1 µg/mL, an MIC [14, 25] of 2.1 nM and an MIC ([15]; Glutamicibacter halophytocola, field isolate from milk, BHI broth, WST colourimetric, 37 °C 6 h, triplicate, read-out: Minimal inhibitory concentration, Glutamicibacter halophytocola) of 3 µg/mL (≈ 6.28 µM). The MIC ([16]; Streptococcus uberis, field isolate from milk, BHI broth, WST colourimetric, 37 °C 6 h, triplicate, read-out: Minimal inhibitory concentration, Streptococcus uberis) was 60 µg/mL (≈ 126 µM).
“ILGPALRIGGRIAGRIAGKLIGDAINRHRERNRQRRG [PD-CATH]” was tested, and the “minimum inhibitory concentration, range over strains” value [17] was 200 to 10300 nM, the “Cell viability ± SD, PK15” value ([18]; 64 μg/mL peptide) was 43.6 ± 1.7% and the “Cell viability ± SD, PK15” value ([18]; 160 μg/mL peptide) was 7.4 ± 0.2%. The “Haemolytic activity against bovine erythrocytes” value (shortened to “Haemolytic activity”) ([19]; 10 μg/mL, 2% (v/v) erythrocytes in PBS pH 7.4, 37 °C 1 h, mean ± SD) was 0.4 ± 0.2%, the “Haemolytic activity” value ([19]; 20 μg/mL, 2% erythrocytes in PBS pH 7.4, 37 °C 1 h) was 0.7 ± 0.4% and the “Haemolytic activity” value ([19]; 40 μg/mL, 2% erythrocytes in PBS pH 7.4, 37 °C 1 h) was 2.9 ± 0.2%. For the same compound, the “Haemolytic activity” value ([19]; 80 μg/mL, 2% erythrocytes in PBS pH 7.4, 37 °C 1 h) was 3.5 ± 0.2%, the “MICs, range over all bacterial species in the test panel” value [20] was 2 to 42 µg/mL and the “Cell viability ± SD, HaCaT” value ([21]; 64 μg/mL peptide) was 100.2 ± 0.2%. The “Cell viability ± SD, HaCaT” value ([21]; 160 μg/mL peptide) was 11.4 ± 0.5%, the “Minimal inhibitory concentration, Staphylococcus aureus” value ([2]; ATCC 6538, 6 h) was 3 (0.7) μg/mL and the “Minimal inhibitory concentration, Enterococcus faecalis” value ([4]; ATCC 29212, 6 h) was 6 (1.5) μg/mL. For the same compound, the “Minimal inhibitory concentration, Streptococcus agalactiae” value ([5]; ATCC 27956, 6 h) was 8 (2.0) μg/mL, the “Minimal inhibitory concentration, Streptococcus dysgalactiae” value ([6]; ATCC 27957, 6 h) was 18 (4.4) μg/mL and the “Minimal inhibitory concentration, Pseudomonas aeruginosa” value ([7]; ATCC 27853, 6 h) was 42 (10.3) μg/mL. For the same compound, the “Minimal inhibitory concentration, Bacillus cereus” value ([8]; ATCC 10876, 6 h) was 6 (1.5) μg/mL, the “Minimal inhibitory concentration, Streptococcus equi subsp. zooepidemicus” value ([9]; ATCC 43079, 6 h) was 17 (4.2) μg/mL and the “MICs, range over field isolates” value [22] was 0.8 to 5 µg/mL. For the same compound, the “antibacterial activity after incubation with serum” value [23] was “remained unaffected under all the tested conditions”, the “Minimal inhibitory concentration, Corynebacterium simulans” value ([11]; 6 h) was 1 µg/mL and the “Minimal inhibitory concentration, Staphylococcus chromogenes” value ([12]; 6 h) was 4 (1.0) μg/mL. For the same compound, the “Minimal inhibitory concentration, Staphylococcus epidermidis” value ([13]; 6 h) was 3 (0.7) μg/mL, the “Minimal inhibitory concentration, Staphylococcus xylosus” value ([14]; 6 h) was 3 (0.7) μg/mL and the “Minimal inhibitory concentration, Glutamicibacter halophytocola” value ([15]; 6 h) was 1 µg/mL. The “Minimal inhibitory concentration, Streptococcus uberis” value ([16]; 6 h) was 5 (1.2) μg/mL.
